Reference: patent US7897619B2, “Heterocyclic modulators of PKB” (Amgen Inc., priority 2007, dated 2011)
pIC50: −log10 of the molar value.

target: PKBα (Homo sapiens, UniProt P31749); test: PKB kinase assay (P33-labeled ATP, synthetic peptide substrate, filter plate); format: biochemical; conditions: PKBα enzyme (full length or kinase domain with pleckstrin domain deleted)
Excerpt: The kinase assay for evaluating PKB activity comprises active PKB enzymes, a PKB specific substrate, and P^33-labeled ATP. Two forms of PKBα enzymes were used, the full length PKBα and a kinase domain of PKBα with pleckstrin domain (amino acids 1-117) deleted. Both PKB enzymes were obtained from Upstate cell signaling solutions (Cat.# 14-276 and 14-341). The PKB substrate used is a synthetic peptide (ARKRERTYSFGHHA (SEQ ID NO: 1)) as described in Obata et al., J. Biol. Chem. 275 (46), 36108-36115 (2000). The phosphorylated substrate was captured by a phosphocellulose membrane filter plate (MILLIPORE) and measured by a Wallac Microbeta liquid scintillation counter (Perkin Elmer). Table 1 provides the IC50 values obtained for each of the examples with respect to PKBα.

Sequence of PKBα (P31749 118-480 limits assumed): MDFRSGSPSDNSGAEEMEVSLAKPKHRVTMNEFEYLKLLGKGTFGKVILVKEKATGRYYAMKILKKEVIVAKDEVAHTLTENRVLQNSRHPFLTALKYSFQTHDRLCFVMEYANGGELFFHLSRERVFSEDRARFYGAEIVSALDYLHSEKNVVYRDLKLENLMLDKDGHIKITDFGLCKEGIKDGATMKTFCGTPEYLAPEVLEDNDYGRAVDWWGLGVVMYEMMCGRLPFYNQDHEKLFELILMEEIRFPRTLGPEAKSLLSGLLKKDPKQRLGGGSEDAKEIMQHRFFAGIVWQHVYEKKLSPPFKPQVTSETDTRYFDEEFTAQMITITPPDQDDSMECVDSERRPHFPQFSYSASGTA

**Q.** N[C@H](CNc1nnc(-c2ccc3cnccc3c2)o1)Cc1ccc(C(F)(F)F)cc1 [Example 1, N-((S)-2-amino-3-(4-(trifluoromethyl)phenyl)propyl)-5-(isoquinolin-6-yl)-1,3,4-oxadiazol-2-amine] was tested. Which pIC50 did it give?
**A.** 6.00 to 7.30

**Q.** With Cc1n[nH]c2ccc(-c3nnc(NC[C@@H](N)Cc4cccc(C(F)(F)F)c4)o3)cc12 [Example 2, N-((S)-2-amino-3-(3-(trifluoromethyl)phenyl)propyl)-5-(3-methyl-1H-indazol-5-yl)-1,3,4-oxadiazol-2-amine] as the compound, how does the pIC50 read?
**A.** 5.00 to 6.00

**Q.** How did the pIC50 turn out when N[C@H](CCc1nc(-c2ccc3cnccc3c2)no1)Cc1ccc(C(F)(F)F)cc1 [Example 3, (2R)-4-(3-(Isoquinolin-6-yl)-1,2,4-oxadiazol-5-yl)-1-(4-(trifluoromethyl)phenyl)butan-2-amine] was run?
**A.** 5.00 to 6.00

**Q.** With N[C@@H](Cc1ccc(C(F)(F)F)cc1)Cc1nc(-c2ccc3cnccc3c2)no1 [Example 4, (2S)-1-(3-(Isoquinolin-6-yl)-1,2,4-oxadiazol-5-yl)-3-(4-(trifluoromethyl)phenyl)propan-2-amine] as the compound, how does the pIC50 read?
**A.** 5.00 to 6.00

**Q.** N[C@@H](Cc1ccc(C(F)(F)F)cc1)c1nc(-c2ccc3cnccc3c2)no1 [Example 5, (1S)-1-(3-(Isoquinolin-6-yl)-1,2,4-oxadiazol-5-yl)-2-(4-(trifluoromethyl)phenyl)ethanamine] was tested. Which pIC50 did it give?
**A.** 5.00 to 6.00

**Q.** With COc1ccc(CNc2ncc(-c3ccc4cnccc4c3)o2)cc1 [Example 6, N-(4-Methoxybenzyl)-5-(isoquinolin-6-yl)oxazol-2-amine] as the compound, how does the pIC50 read?
**A.** 5.00 to 6.00

**Q.** With COc1ccc(CNc2ncc(-c3ccccc3)o2)cc1 [Example 7, N-(4-Methoxybenzyl)-5-phenyloxazol-2-amine] as the compound, how does the pIC50 read?
**A.** 5.00 to 6.00

**Q.** How did the pIC50 turn out when COc1ccc(CNc2ncc(-c3ccncc3)o2)cc1 [Example 8, N-(4-Methoxybenzyl)-5-(pyridin-4-yl)oxazol-2-amine] was run?
**A.** 5.00 to 6.00

**Q.** With Cc1n[nH]c2ccc(-c3cnc(NC[C@@H](N)Cc4ccc(C(F)(F)F)cc4)o3)cc12 [Example 9, N-((S)-2-Amino-3-(4-(trifluoromethyl)phenyl)propyl)-5-(3-methyl-1H-indazol-5-yl)oxazol-2-amine] as the compound, how does the pIC50 read?
**A.** 6.00 to 7.30

**Q.** With Cc1n[nH]c2ccc(-c3cnc(NCc4ccccc4)o3)cc12 [Example 10, N-Benzyl-5-(3-methyl-1H-indazol-5-yl)oxazol-2-amine] as the compound, how does the pIC50 read?
**A.** 5.00 to 6.00

**Q.** How did the pIC50 turn out when N[C@H](CNc1cc(-c2ccc3cnccc3c2)no1)Cc1ccc(Cl)cc1 [Example 11, N-((S)-2-Amino-3-(4-chlorophenyl)propyl)-3-(isoquinolin-6-yl)isoxazol-5-amine] was run?
**A.** > 7.30

**Q.** How did the pIC50 turn out when N[C@H](CNc1cc(-c2ccc3cnccc3c2)no1)Cc1ccc(Br)cc1 [Example 12, N-((S)-2-Amino-3-(4-bromophenyl)propyl)-3-(isoquinolin-6-yl)isoxazol-5-amine] was run?
**A.** > 7.30

**Q.** How did the pIC50 turn out when N[C@H](CNc1cc(-c2ccc3cnccc3c2)no1)Cc1cccc(C(F)(F)F)c1 [Example 13, N-((S)-2-Amino-3-(3-(trifluoromethyl)phenyl)propyl)-3-(isoquinolin-6-yl)isoxazol-5-amine] was run?
**A.** > 7.30

**Q.** How did the pIC50 turn out when N[C@H](CNc1cc(-c2ccc3cnccc3c2)no1)Cc1ccc(C(F)(F)F)cc1 [Example 14, N-((S)-2-Amino-3-(4-(trifluoromethyl)phenyl)propyl)-3-(isoquinolin-6-yl)isoxazol-5-amine] was run?
**A.** > 7.30

**Q.** With N[C@H](CNc1cc(-c2ccc3cnccc3c2)no1)Cc1ccccc1 [Example 15, N-((S)-2-Amino-3-phenylpropyl)-3-(isoquinolin-6-yl)isoxazol-5-amine] as the compound, how does the pIC50 read?
**A.** 6.00 to 7.30

**Q.** With N[C@H](CNc1cc(-c2ccc3cnccc3c2)no1)Cc1cccc(Cl)c1 [Example 16, N-((S)-2-Amino-3-(3-chlorophenyl)propyl)-3-(isoquinolin-6-yl)isoxazol-5-amine] as the compound, how does the pIC50 read?
**A.** > 7.30

**Q.** With Cc1c(-c2ccc3cnccc3c2)noc1NC[C@@H](N)Cc1ccccc1 [Example 17, N-((S)-2-Amino-3-phenylpropyl)-3-(isoquinolin-6-yl)-4-methylisoxazol-5-amine] as the compound, how does the pIC50 read?
**A.** 5.00 to 6.00

**Q.** How did the pIC50 turn out when N[C@H](CNc1cc(-c2ccc3cnccc3c2)no1)Cc1ccccc1Cl [Example 18, N-((S)-2-Amino-3-(2-chlorophenyl)propyl)-3-(isoquinolin-6-yl)isoxazol-5-amine] was run?
**A.** 6.00 to 7.30

**Q.** With N[C@H](CNc1cc(-c2ccc3cnccc3c2)no1)Cc1ccc2ccccc2c1 [Example 19, N-((S)-2-Amino-3-(naphthalen-2-yl)propyl)-3-(isoquinolin-6-yl)isoxazol-5-amine] as the compound, how does the pIC50 read?
**A.** 6.00 to 7.30

**Q.** How did the pIC50 turn out when N[C@H](CNc1cc(-c2ccc3cnccc3c2)on1)Cc1ccc(C(F)(F)F)cc1 [Example 20, N-((S)-2-Amino-3-(4-(trifluoromethyl)phenyl)propyl)-5-(isoquinolin-6-yl)isoxazol-3-amine] was run?
**A.** 6.00 to 7.30

**Q.** With N[C@H](CNc1cc(-c2ccc3cnccc3c2)on1)Cc1cccc(Cl)c1 [Example 21, N-((S)-2-Amino-3-(3-chlorophenyl)propyl)-5-(isoquinolin-6-yl)isoxazol-3-amine] as the compound, how does the pIC50 read?
**A.** 6.00 to 7.30

**Q.** With N[C@H](CNc1cc(-c2ccc3cnccc3c2)on1)Cc1ccc(Cl)cc1 [Example 22, N-((S)-2-Amino-3-(4-chlorophenyl)propyl)-5-(isoquinolin-6-yl)isoxazol-3-amine] as the compound, how does the pIC50 read?
**A.** 6.00 to 7.30

**Q.** How did the pIC50 turn out when N[C@H](CCc1cc(-c2ccc3cnccc3c2)no1)Cc1ccccc1 [Example 23, (2R)-4-(3-(isoquinolin-6-yl)isoxazol-5-yl)-1-phenylbutan-2-amine] was run?
**A.** 5.00 to 6.00

**Q.** How did the pIC50 turn out when N[C@H](CCc1cc(-c2ccc3cnccc3c2)no1)Cc1ccc(C(F)(F)F)cc1 [Example 24, (2R)-4-(3-(Isoquinolin-6-yl)isoxazol-5-yl)-1-(4-(trifluoromethyl)phenyl)butan-2-amine] was run?
**A.** > 7.30

**Q.** How did the pIC50 turn out when N[C@H](CCc1cc(-c2ccc3cnccc3c2)no1)Cc1ccc(Cl)cc1 [Example 25, (2R)-1-(4-Chlorophenyl)-4-(3-(isoquinolin-6-yl)isoxazol-5-yl)butan-2-amine] was run?
**A.** 6.00 to 7.30

**Q.** With N[C@H](CCc1cc(-c2ccc3cnccc3c2)no1)Cc1cccc(Cl)c1 [Example 26, (2R)-1-(3-chlorophenyl)-4-(3-(isoquinolin-6-yl)isoxazol-5-yl)butan-2-amine] as the compound, how does the pIC50 read?
**A.** 6.00 to 7.30

**Q.** N[C@H](CCc1cc(-c2ccc3cnccc3c2)no1)Cc1ccccc1Cl [Example 27, (2R)-1-(2-chlorophenyl)-4-(3-(isoquinolin-6-yl)isoxazol-5-yl)butan-2-amine] was tested. Which pIC50 did it give?
**A.** 5.00 to 6.00

**Q.** N[C@@H](CCc1cc(-c2ccc3cnccc3c2)no1)Cc1ccc(C(F)(F)F)cc1 [Example 28, (2S)-4-(3-(Isoquinolin-6-yl)isoxazol-5-yl)-1-(4-(trifluoromethyl)phenyl)butan-2-amine] was tested. Which pIC50 did it give?
**A.** 6.00 to 7.30

**Q.** With N[C@H](CCc1cc(-c2ccc3cnccc3c2)no1)Cc1cccc(C(F)(F)F)c1 [Example 29, (2R)-4-(3-(Isoquinolin-6-yl)isoxazol-5-yl)-1-(3-(trifluoromethyl)phenyl)butan-2-amine] as the compound, how does the pIC50 read?
**A.** 6.00 to 7.30

**Q.** How did the pIC50 turn out when N[C@H](CCc1cc(-c2ccc3cnccc3c2)no1)Cc1ccc(Cl)cc1Cl [Example 30, (2R)-1-(2,4-Dichlorophenyl)-4-(3-(isoquinolin-6-yl)isoxazol-5-yl)butan-2-amine] was run?
**A.** 6.00 to 7.30

**Q.** N[C@H](CNc1onc(-c2ccc3cnccc3c2)c1Cc1ccccc1)Cc1ccccc1 [Example 31, N-((S)-2-amino-3-phenylpropyl)-4-benzyl-3-(isoquinolin-6-yl)isoxazol-5-amine] was tested. Which pIC50 did it give?
**A.** 5.00 to 6.00

**Q.** How did the pIC50 turn out when N[C@H](CNc1cc(-c2ccc3cnccc3c2)no1)Cc1c[nH]c2ccccc12 [Example 32, N-((S)-2-amino-3-(1H-indol-3-yl)propyl)-3-(isoquinolin-6-yl)isoxazol-5-amine] was run?
**A.** 6.00 to 7.30

**Q.** N[C@H](CNc1onc(-c2ccc3cnccc3c2)c1Cc1ccccc1)Cc1c[nH]c2ccccc12 [Example 33, N-((S)-2-Amino-3-(1H-indol-3-yl)propyl)-4-benzyl-3-(isoquinolin-6-yl)isoxazol-5-amine] was tested. Which pIC50 did it give?
**A.** 6.00 to 7.30

**Q.** How did the pIC50 turn out when CC(C)Cc1c(-c2ccc3cnccc3c2)noc1NC[C@@H](N)Cc1c[nH]c2ccccc12 [Example 34, N-((S)-2-Amino-3-(1H-indol-3-yl)propyl)-4-isobutyl-3-(isoquinolin-6-yl)isoxazol-5-amine] was run?
**A.** 5.00 to 6.00

**Q.** NCCc1c(-c2ccc3cnccc3c2)noc1NC[C@@H](N)Cc1c[nH]c2ccccc12 [Example 35, N-((S)-2-Amino-3-(1H-indol-3-yl)propyl)-4-(2-aminoethyl)-3-(isoquinolin-6-yl)isoxazol-5-amine] was tested. Which pIC50 did it give?
**A.** 5.00 to 6.00

**Q.** How did the pIC50 turn out when NCCNc1onc(-c2ccc3cnccc3c2)c1Cc1ccccc1 [Example 36, N-(2-Aminoethyl)-4-benzyl-3-(isoquinolin-6-yl)isoxazol-5-amine] was run?
**A.** 5.00 to 6.00

**Q.** N[C@H](CCn1cc(-c2ccc3[nH]ncc3c2)nn1)Cc1ccc(C(F)(F)F)cc1 [Example 37, (2S)-4-(4-(1H-Indazol-5-yl)-1H-1,2,3-triazol-1-yl)-1-(4-(trifluoromethyl)phenyl)butan-2-amine] was tested. Which pIC50 did it give?
**A.** 6.00 to 7.30

**Q.** How did the pIC50 turn out when Cc1n[nH]c2ccc(-c3cn(CC[C@@H](N)Cc4ccc(C(F)(F)F)cc4)nn3)cc12 [Example 38, (2S)-4-(4-(3-Methyl-1H-indazol-5-yl)-1H-1,2,3-triazol-1-yl)-1-(4-(trifluoromethyl)phenyl)butan-2-amine] was run?
**A.** 6.00 to 7.30

**Q.** N[C@H](CCn1cc(-c2ccc3[nH]ncc3c2)nn1)Cc1ccccc1 [Example 39, (2S)-4-(4-(1H-Indazol-5-yl)-1H-1,2,3-triazol-1-yl)-1-phenylbutan-2-amine] was tested. Which pIC50 did it give?
**A.** 6.00 to 7.30

**Q.** Cc1n[nH]c2ccc(-c3cn(CC[C@@H](N)Cc4ccccc4)nn3)cc12 [Example 40, (2S)-4-(4-(3-Methyl-1H-indazol-5-yl)-1H-1,2,3-triazol-1-yl)-1-phenylbutan-2-amine] was tested. Which pIC50 did it give?
**A.** 5.00 to 6.00
